{"source": "patent US20020122835A1", "about": "“Compositions for enhancing muscle tissue recovery and repair” (priority 2001, published 2002)", "origin": "cited, not measured here", "key": {"[1]": {"details": "oral administration, human volunteers; Kobayashi et al 1998"}}, "data": [{"compound": "CCNC(=O)CC[C@H](N)C(=O)O", "note": "[L-theanine]", "values": [{"measurement": "feeling of relaxation", "setting": "[1]", "value": "caused a feeling of relaxation"}, {"measurement": "safety in animal experiments", "value": "safe"}]}]}
